According to patent publication US8455640B2, “Process for statins and its pharmaceutically acceptable salts thereof” (MSN Laboratories Limited, priority 2006, dated 2013):

Assay: solubility of the calcium salt in aqueous methanol / methanol
Format: physicochemical

solubility in an aqueous methanol (calcium salt prepared by the present invention (calcium acetate as calcium source)): freely soluble | solubility in an aqueous methanol (calcium salt prepared by the prior art process (U.S. Pat. No. 5,260,440; sodium chloride byproducts)): poor solubility
SMILES: CC(C)c1nc(N(C)S(C)(=O)=O)nc(-c2ccc(F)cc2)c1/C=C/[C@@H](O)C[C@@H](O)CC(=O)[O-].CC(C)c1nc(N(C)S(C)(=O)=O)nc(-c2ccc(F)cc2)c1/C=C/[C@@H](O)C[C@@H](O)CC(=O)[O-].[Ca+2] [formula (1a), rosuvastatin calcium]
